{
  "source": "patent US20110135772A1",
  "about": "“SKIN CARE AGENT AND COMPOSITIONS THEREOF” (priority 2009, published 2011)",
  "target": "elastase (Sus scrofa, UniProt P00772)",
  "sequence (P00772 27-266)": "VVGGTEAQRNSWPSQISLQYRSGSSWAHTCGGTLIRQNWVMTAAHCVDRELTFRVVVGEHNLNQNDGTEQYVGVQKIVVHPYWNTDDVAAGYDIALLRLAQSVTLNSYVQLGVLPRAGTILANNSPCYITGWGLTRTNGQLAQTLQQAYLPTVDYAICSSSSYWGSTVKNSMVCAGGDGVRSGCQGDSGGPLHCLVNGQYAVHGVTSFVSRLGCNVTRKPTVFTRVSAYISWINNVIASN",
  "assay": "Elastase inhibition assay (succinyl-L-alanyl-L-alanyl-L-alanyl-p-nitroanilide hydrolysis, 410 nm)",
  "type": "biochemical",
  "description": "300 μl (0.6 mg) of succinyl-L-alanyl-L-alanyl-L-alanyl-p-nitroanilide (the enzyme substrate), 1200 μl of buffer and varying amounts of the elastase inhibitor under testing are incubated at 37° C. for 20 minutes. The hydrolysis is measured by the spectrophotometric measurement of the release of p-nitroaniline at a wavelength of 410 nm.\nThe anti-aging activity of the individual molecules along with different combinations were studied and the results mentioned in Table.2",
  "data": [
    {"smiles": "O=C(OC[C@H]1O[C@@H](OC(=O)c2cc(O)c(O)c(O)c2)[C@H](OC(=O)c2cc(O)c(O)c(O)c2)[C@@H](OC(=O)c2cc(O)c(O)c(O)c2)[C@@H]1OC(=O)c1cc(O)c(O)c(O)c1)c1cc(O)c(O)c(O)c1", "note": "[Formula 3, pentagalloyl glucose]", "values": [
      {"measurement": "Inhibition", "setting": "at 70 μg/ml", "result": 56.6, "unit": "% at 70 μg/ml"},
      {"measurement": "% Inhibition", "setting": "synergistic studies, ratio Pentagalloyl glucose:Methyl gallate, concentration not given", "result": 49, "unit": "%"}
    ]}
  ]
}
